Measurements: patent publication US10787452B2 (Vertex Pharmaceuticals Incorporated, priority 2012, dated 2020)

test system: HCT116 colorectal cancer cells; experiment: Cisplatin sensitization assay (96 h cell viability MTS); type: cell-based; details: 96 h MTS, compound plus Cisplatin;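 further: compound concentration needed to lower the Cisplatin-alone IC50 by a set fold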
Procedure, shortened: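 HCT116 cells were co-treated with compound and cisplatin, each in 2-fold serial dilutions from a 10 μM top final concentration, as a full matrix. After 96 h at 37 °C, 5% CO2, viability was read by MTS following a 1 h incubation with reagent.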

Compound	Cisplatin Sensitization Assay
Nc1nn2cc(F)cnc2c1C(=O)Nc1cnccc1N1CCCCC1 [I-N-152, 2-amino-6-fluoro-N-(4-(piperidin-1-yl)pyridin-3-yl)pyrazolo[1,5-a]pyrimidine-3-carboxamide]	+++ (Compounds with a Cisplatin sensitization value of <0.02 μM are marked with “+++.”)
Nc1nn2cc(Cl)cnc2c1C(=O)Nc1cnccc1OC1CCOCC1 [I-O-61, 2-amino-6-chloro-N-(4-((tetrahydro-2H-pyran-4-yl)oxy)pyridin-3-yl)pyrazolo[1,5-a]pyrimidine-3-carboxamide]	+++ (Compounds with a Cisplatin sensitization value of <0.02 μM are marked with “+++.”)
CN(C)CC(=O)N1CCN(c2c(F)cncc2NC(=O)c2c(N)nn3cc(F)cnc23)CC1 [I-N-153, 2-amino-N-(4-(4-(2-(dimethylamino)acetyl)piperazin-1-yl)-5-fluoropyridin-3-yl)-6-fluoropyrazolo[1,5-a]pyrimidine-3-carboxamide]	++ (Compounds with a Cisplatin sensitization value >0.02 μM but <0.2 μM are marked with “++.”)
Nc1nn2cc(F)cnc2c1C(=O)Nc1cncc(F)c1N1CCC(C(=O)N2CC3CNCC3C2)CC1 (stereo not drawn) [I-G-51, 2-amino-6-fluoro-N-(5-fluoro-4-(4-(octahydropyrrolo[3,4-c]pyrrole-2-carbonyl)piperidin-1-yl)pyridin-3-yl)pyrazolo[1,5-a]pyrimidine-3-carboxamide]	+++ (Compounds with a Cisplatin sensitization value of <0.02 μM are marked with “+++.”)
CN1C(=O)CCC12CCN(c1ccncc1NC(=O)c1c(N)nn3cc(F)cnc13)CC2 [I-N-235, 2-amino-6-fluoro-N-(4-(1-methyl-2-oxo-1,8-diazaspiro[4.5]decan-8-yl)pyridin-3-yl)pyrazolo[1,5-a]pyrimidine-3-carboxamide]	++ (Compounds with a Cisplatin sensitization value >0.02 μM but <0.2 μM are marked with “++.”)
Nc1nn2cc(F)cnc2c1C(=O)Nc1cncc(F)c1N1CCC(C(=O)N2CCNCC2)CC1 [I-G-12, 2-amino-6-fluoro-N-(5-fluoro-4-(4-(piperazine-1-carbonyl)piperidin-1-yl)pyridin-3-yl)pyrazolo[1,5-a]pyrimidine-3-carboxamide]	+++ (Compounds with a Cisplatin sensitization value of <0.02 μM are marked with “+++.”)
Nc1nn2cc(Cl)cnc2c1C(=O)Nc1cnccc1N1CCCC(N)C1 (stereo not drawn) [I-N-55, 2-amino-N-(4-(3-aminopiperidin-1-yl)pyridin-3-yl)-6-chloropyrazolo[1,5-a]pyrimidine-3-carboxamide]	++ (Compounds with a Cisplatin sensitization value >0.02 μM but <0.2 μM are marked with “++.”)
Nc1nn2cc(F)cnc2c1C(=O)Nc1cnccc1N1CCN2CCC1CC2 [I-N-18, N-(4-(1,4-diazabicyclo[3.2.2]nonan-4-yl)pyridin-3-yl)-2-amino-6-fluoropyrazolo[1,5-a]pyrimidine-3-carboxamide]	++ (Compounds with a Cisplatin sensitization value >0.02 μM but <0.2 μM are marked with “++.”)
Nc1nn2cc(F)cnc2c1C(=O)Nc1cnccc1C1CCOC1 (stereo not drawn) [I-C-75, 2-amino-6-fluoro-N-(4-(tetrahydrofuran-3-yl)pyridin-3-yl)pyrazolo[1,5-a]pyrimidine-3-carboxamide]	++ (Compounds with a Cisplatin sensitization value >0.02 μM but <0.2 μM are marked with “++.”)
Cc1cc(C(=O)N2CCN(C)CC2)ccc1-c1ccncc1NC(=O)c1c(N)nn2cc(F)cnc12 [I-C-45, 2-amino-6-fluoro-N-(4-(2-methyl-4-(4-methylpiperazine-1-carbonyl)phenyl)pyridin-3-yl)pyrazolo[1,5-a]pyrimidine-3-carboxamide]	+++ (Compounds with a Cisplatin sensitization value of <0.02 μM are marked with “+++.”)
Nc1nn2cc(Cl)cnc2c1C(=O)Nc1cnccc1Oc1cccnc1 [I-O-70, 2-amino-6-chloro-N-(4-(pyridin-3-yloxy)pyridin-3-yl)pyrazolo[1,5-a]pyrimidine-3-carboxamide]	+++ (Compounds with a Cisplatin sensitization value of <0.02 μM are marked with “+++.”)
CN1CCC(S(=O)(=O)N2CCN(c3c(F)cncc3NC(=O)c3c(N)nn4cc(F)cnc34)CC2)CC1 [I-N-175, 2-amino-6-fluoro-N-(5-fluoro-4-(4-((1-methylpiperidin-4-yl)sulfonyl)piperazin-1-yl)pyridin-3-yl)pyrazolo[1,5-a]pyrimidine-3-carboxamide]	+++ (Compounds with a Cisplatin sensitization value of <0.02 μM are marked with “+++.”)
Cc1ncnn1-c1c(F)cncc1NC(=O)c1c(N)nn2cc(F)cnc12 [I-N-242, 2-amino-6-fluoro-N-(5-fluoro-4-(5-methyl-1H-1,2,4-triazol-1-yl)pyridin-3-yl)pyrazolo[1,5-a]pyrimidine-3-carboxamide]	+ (Compounds with a Cisplatin sensitization value >0.2 μM but <5 μM are marked with “+.”)
CCN1CCN(C(=O)C2CCN(c3c(F)cncc3NC(=O)c3c(N)nn4cc(F)cnc34)CC2)CC1 [I-G-9, 2-amino-N-(4-(4-(4-ethylpiperazine-1-carbonyl)piperidin-1-yl)-5-fluoropyridin-3-yl)-6-fluoropyrazolo[1,5-a]pyrimidine-3-carboxamide]	+++ (Compounds with a Cisplatin sensitization value of <0.02 μM are marked with “+++.”)
CN1CCN(C(=O)c2ccc(-c3ccncc3NC(=O)c3c(N)nn4cc(F)cnc34)cn2)CC1 [I-C-19, 2-amino-6-fluoro-N-(6-(4-methylpiperazine-1-carbonyl)-[3,4′-bipyridin]-3′-yl)pyrazolo[1,5-a]pyrimidine-3-carboxamide]	++ (Compounds with a Cisplatin sensitization value >0.02 μM but <0.2 μM are marked with “++.”)
Nc1nn2cc(F)cnc2c1C(=O)Nc1cncc(F)c1N1CCC(C(=O)N2CCN3CCC2CC3)CC1 [I-G-7, N-(4-(4-(1,4-diazabicyclo[3.2.2]nonane-4-carbonyl)piperidin-1-yl)-5-fluoropyridin-3-yl)-2-amino-6-fluoropyrazolo[1,5-a]pyrimidine-3-carboxamide]	+++ (Compounds with a Cisplatin sensitization value of <0.02 μM are marked with “+++.”)
N#CCc1cnc2c(C(=O)Nc3cnccc3OCCN)c(N)nn2c1 [I-O-83, 2-amino-N-(4-(2-aminoethoxy)pyridin-3-yl)-6-(cyanomethyl)pyrazolo[1,5-a]pyrimidine-3-carboxamide]	+++ (Compounds with a Cisplatin sensitization value of <0.02 μM are marked with “+++.”)
CN1C[C@@H]2CCN(c3ccncc3NC(=O)c3c(N)nn4cc(F)cnc34)C[C@@H]2C1=O [I-N-224, 2-amino-6-fluoro-N-(4-((3aR,7aR)-2-methyl-3-oxohexahydro-1H-pyrrolo[3,4-c]pyridin-5(6H)-yl)pyridin-3-yl)pyrazolo[1,5-a]pyrimidine-3-carboxamide]	+ (Compounds with a Cisplatin sensitization value >0.2 μM but <5 μM are marked with “+.”)
Nc1nn2cc(F)cnc2c1C(=O)Nc1cncc(F)c1N1CCC2(CC1)COC2 [I-N-239, 2-amino-6-fluoro-N-(5-fluoro-4-(2-oxa-7-azaspiro[3.5]nonan-7-yl)pyridin-3-yl)pyrazolo[1,5-a]pyrimidine-3-carboxamide]	+++ (Compounds with a Cisplatin sensitization value of <0.02 μM are marked with “+++.”)
CS(=O)(=O)N1CCN(c2ccncc2NC(=O)c2c(N)nn3cc(F)cnc23)CC1 [I-N-178, 2-amino-6-fluoro-N-(4-(4-(methylsulfonyl)piperazin-1-yl)pyridin-3-yl)pyrazolo[1,5-a]pyrimidine-3-carboxamide]	+++ (Compounds with a Cisplatin sensitization value of <0.02 μM are marked with “+++.”)
CN1CCC(c2ccncc2NC(=O)c2c(N)nn3cc(F)cnc23)CC1=O (stereo not drawn) [I-C-73, 2-amino-6-fluoro-N-(4-(1-methyl-2-oxopiperidin-4-yl)pyridin-3-yl)pyrazolo[1,5-a]pyrimidine-3-carboxamide]	++ (Compounds with a Cisplatin sensitization value >0.02 μM but <0.2 μM are marked with “++.”)
CN1CC[C@@H](OC2CCN(c3ccncc3NC(=O)c3c(N)nn4cc(F)cnc34)CC2)C1 [I-N-131]	+++ (Compounds with a Cisplatin sensitization value of <0.02 μM are marked with “+++.”)
Nc1nn2cc(F)cnc2c1C(=O)Nc1cncc(F)c1N1CCC(OCCN2CCCC2)CC1 [I-N-167, 2-amino-6-fluoro-N-(5-fluoro-4-(4-(2-(pyrrolidin-1-yl)ethoxy)piperidin-1-yl)pyridin-3-yl)pyrazolo[1,5-a]pyrimidine-3-carboxamide]	+++ (Compounds with a Cisplatin sensitization value of <0.02 μM are marked with “+++.”)
COC(=O)C1CCN(c2ccncc2NC(=O)c2c(N)nn3cc(Cl)cnc23)CC1 [I-N-74, methyl-1-(3-(2-amino-6-chloropyrazolo[1,5-a]pyrimidine-3-carboxamido)pyridin-4-yl)piperidine-4-carboxylate]	+++ (Compounds with a Cisplatin sensitization value of <0.02 μM are marked with “+++.”)
Nc1nn2cc(F)cnc2c1C(=O)Nc1cnccc1N1CC(=O)N2CCCC2C1 (stereo not drawn) [I-N-222, 2-amino-6-fluoro-N-(4-(4-oxohexahydropyrrolo[1,2-a]pyrazin-2(1H)-yl)pyridin-3-yl)pyrazolo[1,5-a]pyrimidine-3-carboxamide]	++ (Compounds with a Cisplatin sensitization value >0.02 μM but <0.2 μM are marked with “++.”)
CN1CCN(c2c(NC(=O)c3c(N)nn4cc(F)cnc34)cncc2C(F)F)CC1 [I-N-111, 2-amino-N-(5-(difluoromethyl)-4-(4-methylpiperazin-1-yl)pyridin-3-yl)-6-fluoropyrazolo[1,5-a]pyrimidine-3-carboxamide]	++ (Compounds with a Cisplatin sensitization value >0.02 μM but <0.2 μM are marked with “++.”)
COC(=O)N1CCN(c2c(F)cncc2NC(=O)c2c(N)nn3cc(F)cnc23)CC1 [I-N-261, methyl-4-(3-(2-amino-6-fluoropyrazolo[1,5-a]pyrimidine-3-carboxamido)-5-fluoropyridin-4-yl)piperazine-1-carboxylate]	+++ (Compounds with a Cisplatin sensitization value of <0.02 μM are marked with “+++.”)
